The conditions of this series: human, 0 h.

With `O=[N+]([O-])OCC(CO[N+](=O)[O-])O[N+](=O)[O-]` [Nitroglycerin, nitroglycerin], the “Nitroglycerin Cumulative Flux” value is 0 μg/cm^2.

These data come from patent US8900194B2, “Microneedle devices and microneedle delivery apparatus” (3M Innovative Properties Company, priority 2002, dated 2014).
